Measured values from US20030148963A1 (priority 2000, published 2003).
“And” between values parts separate entries of the source, which are not always exact repeats. Identical values can stand only once. Marks after values point to notes of the source that are not given here.

What was measured:
[1] = tested on: collagen induced arthritis (CIA); assay: Collagen induced arthritis, clinical evaluation; format: in vivo, B10.QxDBA/1 female mice
Procedure: B10.QxDBA/1 female mice were used in all experiments. They were aged from 11-16 weeks. In all experiments the mice were age-matched. The mice were kept in the animal facility at the University of Göteborg, under standard conditions of light and temperature and fed standard laboratory chow and water ad libitum.
Rat type II collagen (CII) from a chondrosarcoma was prepared by pepsin digestion and purification as described previously (9). The preparation of CII was dissolved at a concentration of 2 mg/ml in 0.1M acetic acid and stored at 4° C. Arthritis was induced by intradermal injection at the base of the tail with 50 μl of 100 μg CII emulsified with an equal volume of complete Freuid/s adjuvant (CFA; containing Mycobacterium butyricum, Difco, Detroit, Mich.). Mice were boosted with the same volume and concentrations of CII emulsified in incomplete Freund's adjuvant (IFA; Difco) 21 days after the first immunization.
Mice were primed and booster-immunized with CII. They were divided into three groups. […] The third group of mice were controls (n—17), receiving treatment with PBS. Prior to the start of the experiment, six mice in each group were bled for hematological analyses.
At regular time points the mice were examined concerning development of arthritis. Arthritis was defined as visible joint erythema and/or swelling of at least one joint. To evaluate the intensity of arthritis, a clinical scoring system of 0 to 3 points for each limb was used (1 point, mild swelling and/or erythema; 2 points, moderate swelling and erythema; 3 points, marked swelling and erythema). The arthritic index was constructed by adding the scores from all four limbs for each animal (11).

IC-21 cells = assay: Viability and cell number of IC-21 cells; format: cell-based, murine; details: IC-21, etoposide-containing medium at concentrations 0.1 and 0.01 mM (so in the source); preliminary experiments, data not shown
Procedure: (§1) These cells display many typical features of the macrophage phenotype and are therefore a suitable model for studying cytoline and chemokine release during inflammation (16). The cells were maintained in continous culture using RPMI-1640 supplemented with 10% FCS, L-glutamine, and gentamycin. When the cells had grown to about 70% confluency, they were seeded into a 24-well-plate (Nunc) at a concentration of 1×10^5 per well and incubated at 37° C. in 5% CO2 for 24 h. After 24 h the medium was changed into etoposide-containing medium at concentrations 0.1 and 0.01 mM. […] After 24 h of incubation, the cells were washed once with PBS, and reincubated with medium containing different concentrations (1, 10, 100, 1000 ng/ml) of LPS (Difco) and IFN-γ (10, 50, 100 u/nml). The interferon-γ was purified from the supernatants from Chinese hanater ovary (CHO) cells transfected with the murine IFN-γ gene (hybridoma kindly provided by Dr. Morris, Department of Biological Sciences, University of Warwick, Coventry, UK). After 2 and 24 h of incubation the supernatants were collected and stored at −20° C. until analysis.

IL-6 = format: cell-based, NMRI mice; details: spleen cells from non-infected in vivo etoposide-treated mice; mean ± SEM, four mice
immunoglobulins = assay: Serum total immunoglobulins (single radial immunodiffusion); format: in vivo, B10.QxDBA/1 female mice; details: serum at end of experiment, mean ± SEM
Procedure: Serum levels of immunoglobulins were measured by the single radial immunodiffusion technique (12). Antiserum was purchased from Dako (Dako A/S, Denmark) and mouse immunoglobulin standards were obtained from Sigma (Sigma Chemical Co., St. Louis, Mo.).

[2] = tested on: T cell mediated DTH reaction; assay: Delayed type hypersensitivity to oxazolone (ear swelling); format: in vivo, mice; details: 12.5 mg/kg two days, the day before and 1 h before challenge; 24 h; similar to controls
spleen mononuclear cells = format: cell-based, NMRI mice; details: spleen cells from non-infected mice treated once a day for three days vs controls; FIG. 3
S. aureus LS-1 = assay: Determination of bacterial growth in kidneys, blood and joints; format: in vivo; details: for Bacterial growth in blood / Bacterial growth in kidney: mean ± SEM
Procedure: On days 3 and 6-7 after S. aureus inoculation blood samples were obtained and the kidneys were aseptically removed. Appropriate dilutions were made and 0.1 ml of tissue suspensions and of whole blood was plated on agar plates containing 5% horse blood. Six days after the inoculation bacterial samples from the talocrural and radiocarpal joints were obtained and plated on agar plates, containing 7.5% sodium chloride. After incubation for 48 h at 37° C. the bacterial colonies were counted and tested for catalase and coagulase activity.

MIP-1α = MIP-1α release by IC-21 macrophage cell line; format: cell-based, murine
Procedure: Levels of TNF, IL-1b, RANTES, and macrophage inflammatory protein (MIP)-1α were determined using sandwich ELISA from R&D Systems (Minneapolis, Minn.).
as §1, with “h.” for “h. After 24 h the medium was changed into etoposide-containing medium at concentrations 0.1 and 0.01 mM.”

TNF-α = assay: Serum TNF-α in S. aureus infected mice (ELISA); format: in vivo, NMRI mice; details: six days after 1.4×10^7 CFU S. aureus; 12.5 mg/kg from three days prior; mean ± SEM, n = 6
Procedure: The levels of TNF.- were determined using sandwich enzyme-linked immunosorbent assays (ELISA) kit from R&D Systems Minneapolis, Minn.).

[3] = Day 3 after 1-2×10^7 CFU S. aureus
[4] = Day 6-7 after 1-2×10^7 CFU S. aureus

Compound: COc1cc([C@@H]2c3cc4c(cc3[C@@H](O[C@@H]3O[C@@H]5CO[C@@H](C)O[C@H]5[C@H](O)[C@H]3O)[C@H]3COC(=O)[C@H]23)OCO4)cc(OC)c1O [Etoposide]
- Arthritic score of diseased mice ([1]; Etoposide pretreated, Day 46): 0
- Arthritic score of diseased mice ([1]; Etoposide pretreated, Day 53): 0
- Arthritic score of diseased mice ([1]; Etoposide pretreated, Day 61): 0
- Arthritic score of diseased mice ([1]; Etoposide treated (from day 40), Day 46, mean ± SEM): 2.4 ± 0.2 (n = 5)
- Arthritic score of diseased mice ([1]; Etoposide treated (from day 40), Day 53, mean ± SEM): 5.4 ± 1.3 (n = 5)
- Arthritic score of diseased mice ([1]; Etoposide treated (from day 40), Day 61, mean ± SEM): 5.6 ± 1.3 (n = 5)
- Mice with clinical signs of arthritis ([1]; Etoposide-pretreated: 12.5 mg/kg from two days prior to CII immunization, then 4 days weekly, almost nine weeks): none of 19
- Mice exhibiting arthritis at the end of the experiment ([1]; Etoposide-treated: 12.5 mg/kg 4 days per week from 40 days after immunization, 5 of 17, controls 53%): 29%
- Changes in weight ([1]; between or within the groups (pretreated, treated, controls)): No significant changes in weight
- Reduction of frequency of disease ([1]; mice treated with etoposide at the onset of clinical arthritis): 50%
- Cell viability or total cell numbers (IC-21 cells): not to influence the cell viability or total cell numbers
- IL-6, ConA stimulated (IL-6): 455 ± 85^b pg/ml
- IL-6, TSST-1 stimulated (IL-6): 255 ± 66b pg/ml
- Total immunoglobulin levels (immunoglobulins; Etoposide-pretreated): 9.2±0.5 mg/ml and 9.2 ± 0.5a mg/ml
- Total immunoglobulin levels (immunoglobulins; Etoposide-treated (from day 40)): 8.5±0.7 mg/ml and 8.5 ± 0.8^a mg/ml
- DTH reaction to oxazolone (ear thickness increase) [2]: 32±6 ×10^−3 cm
- Proliferative response, Con A stimulated (spleen mononuclear cells): not when stimulated with Con A
- Proliferative response, TSST-1 stimulated (spleen mononuclear cells): lower proliferative response
- Mice with bacteria recovered from joints (S. aureus LS-1; 6 days after inoculation, controls 3 out of 10): 3 out of 8
- Bacterial growth in blood (S. aureus LS-1; [3]): 60 × 10^7 CFU/ml
- Bacterial growth in kidney (S. aureus LS-1; [3]): 3 ± 2 × 10^7 CFU
- Bacterial growth in blood (S. aureus LS-1; [4]): 290 ± 100 × 10^7 CFU/ml
- Bacterial growth in kidney (S. aureus LS-1; [4]): 67 ± 12 × 10^7 CFU
- Levels of MIP-1α in supernatants (MIP-1α; etoposide 0.01 μM 24 h, then IFN-γ 0 u/ml 24 h): 5700 pg/mL
- Levels of MIP-1α in supernatants (MIP-1α; etoposide 0.01 μM 24 h, then IFN-γ 10 u/ml 24 h): 4200 pg/mL
- Levels of MIP-1α in supernatants (MIP-1α; etoposide 0.01 μM 24 h, then IFN-γ 50 u/ml 24 h): 1075 pg/mL
- Levels of MIP-1α in supernatants (MIP-1α; etoposide 0.01 μM 24 h, then IFN-γ 100 u/ml 24 h): 800 pg/mL
- Levels of MIP-1α in supernatants (MIP-1α; etoposide 0.1 μM 24 h, then IFN-γ 0 u/ml 24 h): 3400 pg/mL
- Levels of MIP-1α in supernatants (MIP-1α; etoposide 0.1 μM 24 h, then IFN-γ 10 u/ml 24 h): 1950 pg/mL
- Levels of MIP-1α in supernatants (MIP-1α; etoposide 0.1 μM 24 h, then IFN-γ 50 u/ml 24 h): 900 pg/mL
- Levels of MIP-1α in supernatants (MIP-1α; etoposide 0.1 μM 24 h, then IFN-γ 100 u/ml 24 h): 488 pg/mL
- Serum TNF-α (TNF-α): 30 ± 12 pg/mL
